Laboratory results: the supplement of paper PMC6045584

Tests used:
Assay in all cases: area under dose-response curve of surviving fraction (unscaled, Aref=0) (surviving fraction x log10(nM)); higher = more resistant
Details in all cases: exposure time: 5 days; dose range 0.5-1000 nM
MK-1775 = compound: C=CCn1c(=O)c2cnc(Nc3ccc(N4CCN(C)CC4)cc3)nc2n1-c1cccc(C(C)(C)O)n1 [MK-1775]
Method in brief: (§1)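 Inhibitor was applied to tumour cell lines at eight concentrations (0.5 to 1000 nM) for five days in 384-well plates. Luminescence from CellTiter-Glo, scaled to DMSO-only wells, gave surviving fractions in three screens per line, and these were fitted by 3-parameter logistic regression with the drc R package. The area under the curve is an unscaled activity area. Aref was 0, and dose was on a log10 scale.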

[1] = compound: CCc1cc(Nc2nccc(-c3c(-c4ccc(OC)c(C(=O)Nc5c(F)cccc5F)c4)nc4ccccn34)n2)c(OC)cc1N1CCC(N2CCN(S(C)(=O)=O)CC2)CC1
Method in brief: as §1

CABOZANTINIB = compound: COc1cc2nccc(Oc3ccc(NC(=O)C4(C(=O)Nc5ccc(F)cc5)CC4)cc3)c2cc1OC [CABOZANTINIB]
Method in brief: as §1

LENVATINIB = compound: COc1cc2nccc(Oc3ccc(NC(=O)NC4CC4)c(Cl)c3)c2cc1C(N)=O [LENVATINIB]
Method in brief: as §1

[2] = compound: COc1ccc(-c2cc3c(C)nc(N)nc3n([C@H]3CC[C@H](OCCO)CC3)c2=O)cn1
Method in brief: as §1

[3] = compound: C[C@@H]1CN(CC(=O)Nc2ccc3c(c2)Cc2cccc(-c4cc(=O)cc(N5CCOCC5)o4)c2S3)C[C@H](C)O1
Method in brief: as §1

[4] = compound: C[C@H](CN(C)C)Oc1nc(Nc2cc3cccc(Cl)c3cn2)cnc1C#N
Method in brief: as §1

IMATINIB = compound: Cc1ccc(NC(=O)c2ccc(CN3CCN(C)CC3)cc2)cc1Nc1nccc(-c2cccnc2)n1 [IMATINIB]
Method in brief: as §1

NILOTINIB = compound: Cc1cn(-c2cc(NC(=O)c3ccc(C)c(Nc4nccc(-c5cccnc5)n4)c3)cc(C(F)(F)F)c2)cn1 [NILOTINIB]
Method in brief: as §1

BEZ-235 = compound: Cn1c(=O)n(-c2ccc(C(C)(C)C#N)cc2)c2c3cc(-c4cnc5ccccc5c4)ccc3ncc21 [BEZ-235]
Method in brief: as §1

BMN-673 = compound: Cn1ncnc1[C@H]1c2n[nH]c(=O)c3cc(F)cc(c23)N[C@@H]1c1ccc(F)cc1 [BMN-673]
Method in brief: as §1

VORINOSTAT = compound: O=C(CCCCCCC(=O)Nc1ccccc1)NO [VORINOSTAT]
Method in brief: as §1

BLEOMYCIN = compound: Cc1c(N)nc([C@H](CC(N)=O)NC[C@H](N)C(N)=O)nc1C(=O)N[C@H](C(=O)N[C@H](C)[C@@H](O)[C@H](C)C(=O)N[C@H](C(=O)NCCc1nc(-c2nc(C(=O)NCCC[S+](C)C)cs2)cs1)[C@@H](C)O)[C@@H](OC1OC(CO)C(O)C(O)C1OC1OC(CO)C(O)C(OC(N)=O)C1O)c1cnc[nH]1 [BLEOMYCIN]
Method in brief: as §1

AFIMOXIFENE = compound: CC/C(=C(\c1ccc(O)cc1)c1ccc(OCCN(C)C)cc1)c1ccccc1 [AFIMOXIFENE]
Method in brief: as §1

Test System	area under dose-response curve (MK-1775)	area under dose-response curve [1]	area under dose-response curve (CABOZANTINIB)	area under dose-response curve (LENVATINIB)	area under dose-response curve [2]	area under dose-response curve [3]	area under dose-response curve [4]	area under dose-response curve (IMATINIB)	area under dose-response curve (NILOTINIB)	area under dose-response curve (BEZ-235)	area under dose-response curve (BMN-673)	area under dose-response curve (VORINOSTAT)	area under dose-response curve (BLEOMYCIN)	area under dose-response curve (AFIMOXIFENE)
MDAMB453 BREAST	2.78	3.61	3.43	3.12	2.17	3.16	3.06	3.62	3.15	2.25	2.58	3.13	–	–
143B BONE	2.71	3.38	–	3.51	2.78	3.28	–	–	–	2.55	–	3.26	3.15	–
VCAP PROSTATE	2.4	3.37	3.28	–	2.35	3.6	3.1	3.67	3.26	2.82	2.63	2.98	3.21	3.49
YAMATO SYNOVIAL	–	4.39	2.65	–	2.19	–	–	–	–	2.84	2.65	–	3.25	4.25
HCC202 BREAST	2.67	4	–	–	2.16	3.04	–	–	–	2.62	–	2.75	–	–
SCC003 HEADNECK	2.83	3.47	3.21	3.75	2.7	3.42	3.46	3.7	3.21	2.63	2.8	–	2.6	–
KPD BONE	2.7	3.24	3.33	–	1.97	3.21	2.98	3.49	3.25	2.12	1.92	–	2.48	3.52
C33A CERVIX	2.33	2.94	2.65	3.26	2.1	3.44	3	3.47	3.63	2.24	1.82	–	2.02	3.76
SUM149.B1*.S BREAST	2.74	3.62	3.39	3.96	2.71	–	–	3.85	3.68	3.03	2.65	–	2.89	3.8
SG31 HEADNECK	2.93	3.44	3.45	3.43	2.18	3.26	–	–	3.85	2.43	–	–	2.62	3.88
NCIH441 LUNG	2.78	3.27	3.29	3.46	2.77	3.5	–	3.69	–	3.03	2.71	3.23	2.86	3.62
SAOS2 BONE	2.49	3.69	–	3.65	2.29	3.16	–	3.89	3.18	2.74	2.32	–	2.59	3.87
DU4475 BREAST	2.29	3.05	2.93	–	1.53	3.52	3.04	3.54	3.45	1.94	1.63	–	2.19	2.84
MDAMB157 BREAST	2.07	3.26	3.09	3.03	2.35	3.25	2.75	–	3.49	2.72	2.09	3.15	2.5	–
SG43 HEADNECK	–	3.51	2.63	3.03	1.92	–	2.79	3.35	4.68	2.72	2.45	3.27	2.58	–
BT549 BREAST	2.27	3.58	3.6	3.7	2.15	2.89	2.68	3.76	3.42	2.29	2.53	–	1.6	3.21
BT20 BREAST	2.77	–	3.73	3.71	2.52	–	4.01	4.15	3.28	2.35	2.9	–	2.25	4.62
MG63 BONE	2.87	3.27	3.04	2.98	2.06	3.46	3.49	3.51	3.81	2.27	2.31	3.43	2.35	–
MDAMB468 BREAST	2.87	3.5	3.58	3.61	2.59	3.17	3.03	3.53	3.07	2.83	2.09	–	3.15	3.58
22RV1 PROSTATE	2.97	–	3.33	3.44	1.98	3.54	–	3.51	3.59	2.09	2.4	3.27	2.95	3.57
HCC1395 BREAST	3.14	3	3.98	3.23	2.91	3.09	–	4.07	3.22	3.18	2.84	3.8	2.73	3.9
ZR751 BREAST	–	3.02	–	–	1.71	3.26	2.92	–	3.01	2.35	3.29	4.01	3.06	3.68

Test System	area under dose-response curve (MK-1775)	area under dose-response curve [1]	area under dose-response curve (CABOZANTINIB)	area under dose-response curve (LENVATINIB)	area under dose-response curve [2]	area under dose-response curve [3]	area under dose-response curve [4]	area under dose-response curve (IMATINIB)	area under dose-response curve (NILOTINIB)	area under dose-response curve (BEZ-235)	area under dose-response curve (BMN-673)	area under dose-response curve (VORINOSTAT)	area under dose-response curve (BLEOMYCIN)	area under dose-response curve (AFIMOXIFENE)
SNU475 LIVER	2.93	3.12	3.24	–	2.13	3.13	–	3.51	3.21	2.04	2.83	3.12	2.51	–
SCC36 HEADNECK	2.66	3.23	3.43	3.67	2.62	3.05	3	3.55	3	2.98	2.52	3.13	2.48	–
CAL72 BONE	2.65	3.56	3.56	–	2.62	3.2	2.93	3.71	3.29	2.3	3.14	3.52	3.13	3.6
A549 LUNG	3.15	3.29	3.3	3.51	2.8	3.58	3.25	3.65	3.59	2.55	3.58	–	3.18	3.56
SCC90 HEADNECK	2.22	3.49	3.14	3.91	2.3	–	2.62	3.71	–	2.68	3.31	–	3.23	–
SUM44 BREAST	2.54	–	4.12	3.41	2.6	3.07	2.65	–	3.21	2.29	3.29	2.88	3.07	–
SUM149 BREAST	2.21	3.6	3.18	–	2.28	3.07	2.65	3.23	2.88	2.39	0.994	–	1.44	3.16
MFM223 BREAST	2.48	3.77	3.65	2.7	2.27	3.36	–	3.93	3.16	2.45	3	3.21	2.64	3.79
RDES SOFT TISSUE	2.98	3.71	3.82	3.93	2.91	–	4.28	–	–	–	2.03	3.64	2.68	3.94
NOS1 BONE	1.79	3.75	2.96	2.79	2.25	–	2.6	–	2.94	2.32	2.26	–	2.66	3.91
SG28 HEADNECK	2.63	3.59	–	3.48	2.44	–	–	–	–	2.58	–	–	2.97	–
SG27 HEADNECK	–	3.63	–	3.51	2.65	3.35	3.57	3.66	3.63	3.01	–	–	3.29	3.58
93VU HEADNECK	2.31	3.51	3.14	3.67	2.13	–	3.44	3.93	–	2.65	–	3.25	2.25	4.12
HCC1954 BREAST	2.32	3.23	3.42	3.2	2.09	2.82	3.14	3.5	2.74	2.11	–	3.06	1.38	–
S68 BREAST	2.17	–	3.55	3.45	1.84	–	2.49	3.6	2.73	2.14	1.74	3.12	2.99	3.23
HOSMNG BONE	2.85	3.35	2.68	3.46	2.74	3.27	3.22	3.46	3.21	2.74	3.19	–	–	3.26
SJSA1 BONE	2.86	3.48	5.44	3.51	2.46	3.26	5.38	–	5.57	2.51	4.84	2.78	2.25	–
SG32 HEADNECK	2.43	3.97	3.26	3.96	2.95	3.15	–	3.6	3.05	2.45	3.1	3.07	2.56	–
CADOES1 SOFT TISSUE	2.76	3.13	3.02	2.86	2.15	3.25	2.48	3.08	–	2.12	1.72	2.16	2.17	–
CME SYNOVIAL	–	–	3.92	–	2.55	–	4.25	–	–	–	0.962	–	1.51	4.56
HCC1806 BREAST	2.16	3.26	3.61	3.49	2.72	3.06	2.4	3.65	2.94	2.63	1.26	3	1.54	–
